In paper PMC6009942, “Synthesis and molecular docking studies of some 4-phthalimidobenzenesulfonamide derivatives as acetylcholinesterase and butyrylcholinesterase inhibitors” (Journal of Enzyme Inhibition and Medicinal Chemistry, 2016):

Columns and labels:
[1] = biological target: T1, AChE (E.C.3.1.1.7., Type VI-S, from electric eel) (Electrophorus electricus, UniProt O42275); assay: AChE inhibition, modified Ellman colorimetric method; format: biochemical; settings: pH 8.0, 5-min incubation, mean ± SEM of triplicate independent experiments
T1 construct: purchased Sigma-Aldrich (Steinheim, Germany) Type VI-S
Source text: (§1) AChE (E.C.3.1.1.7., Type VI-S, from electric eel) and BuChE (E.C.3.1.1.8., from equine serum) were purchased from Sigma-Aldrich (Steinheim, Germany). 5,5′-Dithiobis(2-nitrobenzoic acid) (DTNB, Ellman’s reagent) acetylthiocholine iodide (AChI) and butyrylthiocholine iodide (BChI) used as substrates were obtained from Fluka. Buffer compounds (potassium dihydrogen phosphate, potassium hydroxide) and sodium hydrogen carbonate were purchased from Merck (Darmstadt, Germany). Spectrophotometric measurements were performed on a Shimadzu 160-A UV-Vis spectrophotometer.
(§2) The inhibitory effects of the synthesized compounds on AChE and BuChE were evaluated using a slightly modified colorimetric method of Ellman et al., with galantamine as the reference compound[41–45]. Prior to use, all solutions were adjusted to 20 °C. Enzyme solution (100 μL) and inhibitor solution (100 μL) were added into a cuvette containing the phosphate buffer (3.0 mL, 0.1 M; pH 8.0). After 5-min incubation, required aliquots of the DTNB solution (100 μL) and of the AChI/BChI (20 μL) were added. After rapid and immediate mixing, the absorption was measured at 412 nm by UV spectroscopy. As a reference, an identical solution of the enzyme without the inhibitor is processed following the same protocol. The blank reading contained 3.0 mL buffer, 200 μL water, 100 μL DTNB and 20 μL substrate. The enzyme activity was determined in the presence of at least five different concentrations of an inhibitor. Each concentration was assayed in triplicate. The samples were investigated immediately after preparation.
(§3) Inhibitory activities of the synthesized compounds against AChE and BuChE were evaluated by modified Ellman method, using galantamine as the reference compound[41–45]. The AChE inhibitory activity was determined by using electric eel acetylcholinesterase and the BuChE inhibitory activity was tested by using equine serum butyrylcholinesterase.

[2] = biological target: T2, BuChE (E.C.3.1.1.8., from equine serum) (Equus caballus, UniProt P81908); assay: BuChE inhibition, modified Ellman colorimetric method; format: biochemical; settings: pH 8.0, 5-min incubation, mean ± SEM of triplicate independent experiments
T2 construct: BuChE (E.C.3.1.1.8., from equine serum); purchased Sigma-Aldrich (Steinheim, Germany); host or cells: equine serum
Source text: as §1, §2, §3

T1 sequence (O42275 24-633): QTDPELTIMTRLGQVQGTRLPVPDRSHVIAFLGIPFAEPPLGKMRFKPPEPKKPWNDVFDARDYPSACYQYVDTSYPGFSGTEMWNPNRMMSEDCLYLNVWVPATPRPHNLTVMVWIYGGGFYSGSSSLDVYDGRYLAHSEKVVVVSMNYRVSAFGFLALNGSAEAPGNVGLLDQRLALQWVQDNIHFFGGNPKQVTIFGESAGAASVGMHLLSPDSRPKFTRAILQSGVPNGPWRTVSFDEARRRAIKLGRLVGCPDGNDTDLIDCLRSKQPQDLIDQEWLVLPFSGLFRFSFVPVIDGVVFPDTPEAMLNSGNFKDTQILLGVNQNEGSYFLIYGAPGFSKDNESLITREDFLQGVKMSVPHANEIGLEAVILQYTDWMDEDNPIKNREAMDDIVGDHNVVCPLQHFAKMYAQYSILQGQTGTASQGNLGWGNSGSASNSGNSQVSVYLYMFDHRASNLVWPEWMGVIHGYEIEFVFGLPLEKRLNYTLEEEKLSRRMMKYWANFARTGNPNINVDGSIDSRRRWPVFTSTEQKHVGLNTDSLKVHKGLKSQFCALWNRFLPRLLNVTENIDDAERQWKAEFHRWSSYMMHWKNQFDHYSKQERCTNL
T2 sequence (P81908 whole entry): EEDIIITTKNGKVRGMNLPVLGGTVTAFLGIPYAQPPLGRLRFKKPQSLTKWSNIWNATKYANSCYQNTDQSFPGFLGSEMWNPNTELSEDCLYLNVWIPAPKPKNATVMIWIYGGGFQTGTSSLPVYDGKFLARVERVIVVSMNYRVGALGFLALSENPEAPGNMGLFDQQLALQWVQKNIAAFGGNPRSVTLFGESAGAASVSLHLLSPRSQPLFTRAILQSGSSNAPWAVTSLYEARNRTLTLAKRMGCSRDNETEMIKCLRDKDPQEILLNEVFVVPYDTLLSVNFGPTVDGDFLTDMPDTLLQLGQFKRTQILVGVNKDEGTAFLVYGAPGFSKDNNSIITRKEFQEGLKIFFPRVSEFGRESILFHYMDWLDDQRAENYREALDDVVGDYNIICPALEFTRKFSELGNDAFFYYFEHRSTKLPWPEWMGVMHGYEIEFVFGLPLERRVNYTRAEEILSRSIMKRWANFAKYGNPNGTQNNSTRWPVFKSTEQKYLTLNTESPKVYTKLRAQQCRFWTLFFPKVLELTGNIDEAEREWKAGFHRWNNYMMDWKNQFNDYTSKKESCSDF

SMILES | IC50 [1] | IC50 [2]
Cc1ccccc1NS(=O)(=O)c1ccc(N2C(=O)c3ccccc3C2=O)cc1 [Compound 1, 4-(1,3-Dioxoisoindolin-2-yl)-N-(o-tolyl)benzenesulfonamide] | 6.84 ± 0.17 µM | 74.4 ± 2.34 µM
COc1ccccc1NS(=O)(=O)c1ccc(N2C(=O)c3ccccc3C2=O)cc1 [Compound 2, 4-(1,3-Dioxoisoindolin-2-yl)-N-(2-methoxyphenyl)benzenesulfonamide] | 6.79 ± 0.41 µM | 44.2 ± 13.4 µM
CC(C)c1ccccc1NS(=O)(=O)c1ccc(N2C(=O)c3ccccc3C2=O)cc1 [Compound 3, 4-(1,3-Dioxoisoindolin-2-yl)-N-(2-isopropylphenyl)benzenesulfonamide] | 8.19 ± 0.13 µM | 13.4 ± 0.62 µM
Cc1ccc(NS(=O)(=O)c2ccc(N3C(=O)c4ccccc4C3=O)cc2)cc1 [Compound 4, 4-(1,3-Dioxoisoindolin-2-yl)-N-(p-tolyl)benzenesulfonamide] | 8.61 ± 0.18 µM | 85 ± 13.7 µM
COc1ccc(NS(=O)(=O)c2ccc(N3C(=O)c4ccccc4C3=O)cc2)cc1 [Compound 5, 4-(1,3-Dioxoisoindolin-2-yl)-N-(4-methoxyphenyl)benzenesulfonamide] | 8.52 ± 0.18 µM | 87.2 ± 13.2 µM
O=C1c2ccccc2C(=O)N1c1ccc(S(=O)(=O)Nc2ccc(Cl)cc2)cc1 [Compound 6, 4-(1,3-Dioxoisoindolin-2-yl)-N-(4-chlorophenyl)benzenesulfonamide] | 8.21 ± 0.14 µM | 78.1 ± 5.39 µM
CCN(CC)S(=O)(=O)c1ccc(N2C(=O)c3ccccc3C2=O)cc1 [Compound 7, 4-(1,3-Dioxoisoindolin-2-yl)-N,N-diethylbenzenesulfonamide] | 1.35 ± 0.08 µM | > 100 µM
O=C1c2ccccc2C(=O)N1c1ccc(S(=O)(=O)N2CCCC2)cc1 [Compound 8, 2-(4-(Pyrrolidin-1-ylsulfonyl)phenyl)isoindoline-1,3-dione] | > 100 µM | > 100 µM
O=C1c2ccccc2C(=O)N1c1ccc(S(=O)(=O)N2CCCCC2)cc1 [Compound 9, 2-(4-(Piperidin-1-ylsulfonyl)phenyl)isoindoline-1,3-dione] | 10.4 ± 0.61 µM | > 100 µM
CC1CCCCN1S(=O)(=O)c1ccc(N2C(=O)c3ccccc3C2=O)cc1 (stereo not shown) [Compound 10, 2-(4-((2-Methylpiperidin-1-yl)sulfonyl)phenyl)isoindoline-1,3-dione] | 8.05 ± 0.54 µM | 75.2 ± 23.8 µM
O=C1c2ccccc2C(=O)N1c1ccc(S(=O)(=O)N2CCOCC2)cc1 [Compound 11, 2-(4-(Morpholinosulfonyl)phenyl)isoindoline-1,3-dione] | 7.95 ± 0.22 µM | 56.7 ± 3.26 µM
